Results: ChEMBL document CHEMBL1201862, “PubChem BioAssay data set” (2004)
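Dose response: 5 concentrations. Exposure: 48 h. Format: 96-well plates. Endpoint: linear interpolation; highest concentration if not reached. Abbreviation: GI50, concentration required for 50% inhibition of growth.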 Activity calls are given as the source filed them. Cut-off read from the data, not from the text of the source: active = GI50 up to about 1.1 µM and inactive = higher.

Columns and labels:
Assay in all cases: growth of human tumour cells (NCI), 48 h
UO-31 = system: UO-31
UACC-62 = system: UACC-62
NCI-H522 = system: NCI-H522
DMS-114 = system: DMS-114
HOP-92 = system: HOP-92
HT-29 = system: HT-29
RPMI-8226 = system: RPMI-8226
CAKI-1 = system: CAKI-1
RXF 393 = system: RXF 393
DMS-273 = system: DMS-273
CCRF-CEM = system: CCRF-CEM
SF-539 = system: SF-539
SK-OV-3 = system: SK-OV-3
SNB-19 = system: SNB-19
SF-268 = system: SF-268
HCT-15 = system: HCT-15
HCT-116 = system: HCT-116
SK-MEL-5 = system: SK-MEL-5

Measured: GI50

CCCCCN(CCCCC)C(=O)[C@@H](CCC(=O)O)NC(=O)c1cc2ccccc2[nH]1
inactive: UO-31 21.4 µM | UACC-62 20.7 µM | NCI-H522 13.5 µM | DMS-114 33 µM | HOP-92 25.6 µM | HT-29 46.6 µM | RPMI-8226 16 µM | CAKI-1 25.1 µM | RXF 393 1.99 µM | DMS-273 32.1 µM | CCRF-CEM 22.8 µM | SF-539 22.3 µM | SK-OV-3 65.2 µM | SNB-19 34.9 µM | SF-268 24.5 µM | HCT-116 17.9 µM
37.7 µM: HCT-15

O=C1CC(=O)N(CCc2ccccc2)S(=O)(=O)N1CCc1ccccc1
inactive: UO-31 21.8 µM | UACC-62 25.9 µM | NCI-H522 19.5 µM | DMS-114 21.4 µM | HOP-92 16.6 µM | HT-29 23 µM | RPMI-8226 24.4 µM | CAKI-1 22.2 µM | RXF 393 34.1 µM | DMS-273 22.5 µM | CCRF-CEM 17.2 µM | SF-539 22.6 µM | SK-OV-3 24.3 µM | SNB-19 29.2 µM | SK-MEL-5 18.7 µM | SF-268 29.1 µM | HCT-116 28.7 µM
33.2 µM: HCT-15

COc1cc(CCC(=O)NS(=O)(=O)c2ccccc2)cc(OC)c1OC
inactive: UO-31 > 100 µM | UACC-62 > 100 µM | NCI-H522 > 100 µM | DMS-114 > 100 µM | HOP-92 > 100 µM | HT-29 > 100 µM | RPMI-8226 > 100 µM | CAKI-1 > 100 µM | RXF 393 > 100 µM | DMS-273 > 100 µM | CCRF-CEM > 100 µM | SF-539 > 100 µM | SK-OV-3 > 100 µM | SNB-19 > 100 µM | SF-268 > 100 µM | HCT-116 > 100 µM

NNC(=O)/C(=C/c1ccc(Cl)cc1Cl)NC(=O)c1ccccc1
inactive: UO-31 > 100 µM | UACC-62 41 µM | NCI-H522 > 100 µM | DMS-114 > 100 µM | HOP-92 > 100 µM | HT-29 > 100 µM | RPMI-8226 86.7 µM | CAKI-1 > 100 µM | RXF 393 > 100 µM | DMS-273 > 100 µM | CCRF-CEM 79.8 µM | SF-539 > 100 µM | SK-OV-3 > 100 µM | SNB-19 > 100 µM | SK-MEL-5 > 100 µM | SF-268 > 100 µM | HCT-116 > 100 µM
> 100 µM: HCT-15

O=C(NC12CC3CC(CC(C3)C1)C2)C(=O)c1c[nH]c2ccc(Cl)cc12
inactive: UO-31 66.4 µM | UACC-62 40.1 µM | NCI-H522 85.5 µM | DMS-114 66.8 µM | HOP-92 22.9 µM | HT-29 3.97 µM | RPMI-8226 19.9 µM | DMS-273 16.8 µM | CCRF-CEM 46.3 µM | SF-539 16.5 µM | SK-OV-3 32.7 µM | SNB-19 26.8 µM | SK-MEL-5 42.2 µM | SF-268 49 µM | HCT-116 30.1 µM
21.2 µM: HCT-15

O=c1ncccn1[C@@H]1O[C@H](CO)[C@H](O)C1O (stereo partly specified)
inactive: UO-31 > 100 µM | UACC-62 > 99.5 µM | NCI-H522 > 88.5 µM | DMS-114 > 100 µM | HOP-92 > 71.3 µM | HT-29 > 95.1 µM | RPMI-8226 > 74.5 µM | CAKI-1 38.8 µM | RXF 393 80.9 µM | DMS-273 > 77.1 µM | CCRF-CEM 49 µM | SF-539 > 75.3 µM | SK-OV-3 > 100 µM | SNB-19 > 100 µM | SK-MEL-5 > 100 µM | SF-268 71.8 µM | HCT-116 > 70.8 µM
> 93.1 µM: HCT-15

COC(=O)C1=C(C(=O)OC)N(C(C)C)[C@H]2C(C(=O)OC)=C(C(=O)OC)N(C(C)C)[C@@H]12
> 100 µM: HCT-15
inactive: UO-31 > 100 µM | UACC-62 > 100 µM | NCI-H522 > 100 µM | DMS-114 > 100 µM | HOP-92 > 100 µM | HT-29 > 100 µM | RPMI-8226 84.1 µM | CAKI-1 > 100 µM | RXF 393 > 100 µM | DMS-273 > 100 µM | CCRF-CEM > 100 µM | SF-539 > 100 µM | SK-OV-3 > 100 µM | SNB-19 > 100 µM | SK-MEL-5 > 100 µM | SF-268 > 100 µM | HCT-116 > 100 µM

Cc1ccc(S(=O)(=O)N/N=C(\c2nc3ccc([N+](=O)[O-])cc3[nH]c2=O)C(O)c2ccc([N+](=O)[O-])cc2)cc1 (stereo unspecified)
inactive: UO-31 56.9 µM | UACC-62 85.5 µM | NCI-H522 10.8 µM | DMS-114 32 µM | HOP-92 > 100 µM | RPMI-8226 21.6 µM | CAKI-1 97.1 µM | RXF 393 > 100 µM | DMS-273 54 µM | CCRF-CEM 22.3 µM | SF-539 > 100 µM | SK-OV-3 > 100 µM | SNB-19 > 100 µM | SK-MEL-5 73.8 µM | SF-268 63.5 µM
28.2 µM: HCT-15

COC1=CC(=O)c2ccc(C(C)C)cc2C1(C)C1=NC(C)(C)CO1 (stereo unspecified)
inactive: UO-31 > 100 µM | UACC-62 > 100 µM | NCI-H522 77.4 µM | DMS-114 > 100 µM | HOP-92 86.7 µM | HT-29 > 100 µM | RPMI-8226 41.4 µM | CAKI-1 > 100 µM | RXF 393 > 100 µM | DMS-273 > 100 µM | CCRF-CEM > 100 µM | SF-539 > 100 µM | SK-OV-3 > 100 µM | SNB-19 > 100 µM | SK-MEL-5 > 100 µM | SF-268 > 100 µM | HCT-116 > 100 µM
> 100 µM: HCT-15

CC(=O)NC(CCCCNC(=O)N(C)N=O)C(=O)NCc1ccccc1 (stereo unspecified)
> 100 µM: HCT-15
inactive: UO-31 > 100 µM | UACC-62 > 100 µM | NCI-H522 > 100 µM | DMS-114 > 100 µM | HOP-92 > 100 µM | HT-29 > 100 µM | RPMI-8226 > 100 µM | CAKI-1 > 100 µM | RXF 393 > 100 µM | DMS-273 > 100 µM | CCRF-CEM > 100 µM | SF-539 > 100 µM | SK-OV-3 > 100 µM | SNB-19 > 100 µM | SK-MEL-5 > 100 µM | SF-268 > 100 µM | HCT-116 > 100 µM

CN1C(=O)CC(c2cccc(C3CC(=O)N(C)C3=O)n2)C1=O (stereo unspecified)
> 100 µM: HCT-15
inactive: UO-31 > 100 µM | UACC-62 > 100 µM | NCI-H522 > 100 µM | DMS-114 > 100 µM | HOP-92 > 100 µM | HT-29 > 100 µM | CAKI-1 > 100 µM | RXF 393 > 100 µM | DMS-273 > 100 µM | CCRF-CEM > 100 µM | SF-539 > 100 µM | SK-OV-3 > 100 µM | SNB-19 > 100 µM | SK-MEL-5 > 100 µM | SF-268 > 100 µM | HCT-116 > 100 µM

COc1ccc(/C=C/C(=O)c2c(-c3ccccc3)nn(C)c(=O)c2N2CC2C)cc1 (stereo unspecified)
24.3 µM: HCT-15
inactive: UO-31 70.3 µM | UACC-62 19 µM | NCI-H522 22.7 µM | DMS-114 24.7 µM | HOP-92 29 µM | HT-29 32.4 µM | CAKI-1 44.5 µM | RXF 393 27.9 µM | DMS-273 21 µM | CCRF-CEM 22.9 µM | SF-539 39.1 µM | SK-OV-3 30.2 µM | SNB-19 37.8 µM | SK-MEL-5 29.4 µM | SF-268 26.8 µM | HCT-116 36.1 µM

[O-][Cl+3]([O-])([O-])[O-].c1ccc(-c2csc3c4ccccc4c4ccccc4[n+]23)cc1
inactive: UO-31 10.7 µM | UACC-62 1.88 µM | NCI-H522 1.67 µM | HOP-92 4.41 µM | HT-29 4.15 µM | RPMI-8226 4.55 µM | CAKI-1 7.5 µM | RXF 393 13 µM | DMS-273 1.6 µM | CCRF-CEM 2.25 µM | SF-539 3.25 µM | SK-OV-3 13.9 µM | SNB-19 2.15 µM | SF-268 2.34 µM | HCT-116 2.32 µM
active: DMS-114 0.394 µM | SK-MEL-5 0.971 µM
23.3 µM: HCT-15

O=C1c2ccccc2C(=O)c2cc3c(cc21)C[S+]([O-])C3
> 10 µM: HCT-15
inactive: UO-31 > 100 µM | UACC-62 > 100 µM | NCI-H522 > 100 µM | DMS-114 > 100 µM | HOP-92 > 100 µM | HT-29 > 100 µM | RPMI-8226 > 100 µM | CAKI-1 > 100 µM | RXF 393 > 100 µM | DMS-273 > 100 µM | CCRF-CEM > 100 µM | SF-539 > 100 µM | SK-OV-3 > 100 µM | SNB-19 > 100 µM | SK-MEL-5 > 100 µM | SF-268 > 100 µM

C=C(C)C1CC=C(C)C(O)([C@@]2(O)C[C@H](C(=C)C)CC=C2C)C1 (stereo partly specified)
inactive: UO-31 28.4 µM | UACC-62 19.8 µM | NCI-H522 12.6 µM | DMS-114 37.3 µM | HOP-92 12.9 µM | HT-29 17.3 µM | RPMI-8226 20.5 µM | CAKI-1 13.5 µM | RXF 393 13.7 µM | DMS-273 16.2 µM | CCRF-CEM 20.1 µM | SF-539 19.8 µM | SK-OV-3 27.2 µM | SNB-19 32.1 µM | SK-MEL-5 14.8 µM | SF-268 29.9 µM | HCT-116 17.6 µM
> 10 µM: HCT-15

C=C(C)C1C/C=C(/C)CCCC2(CCC3=C(CC(C(=C)C)C/C=C(/C)CCC3)O2)C(=O)C1 (stereo unspecified)
> 100 µM: HCT-15
inactive: UO-31 > 100 µM | UACC-62 > 100 µM | NCI-H522 > 100 µM | DMS-114 > 100 µM | HOP-92 > 100 µM | HT-29 > 100 µM | RPMI-8226 > 100 µM | RXF 393 > 100 µM | DMS-273 > 100 µM | CCRF-CEM > 100 µM | SF-539 > 100 µM | SK-OV-3 > 100 µM | SNB-19 > 100 µM | SF-268 > 100 µM | HCT-116 54.7 µM
